Reference: patent US20030108526A1, “Microorganisms for use in the measurement of environmental factors” (priority 2001, published 2003)

B1: ZmHK1: maize cytokinin receptor, 974 amino acids, SEQ ID NO: 2 (protein)
chain: MGGKYRAARTKRWWRGLAAAGWVLTAVVCSAVMHWTLRRDSMDRAEERLVSMCEERARMLQEQFGVTVNHVHAIAILISTFNFEKSPPAIDQDTFAKYTARTSFERPLLNGVAFAQRVFHHEREMFESQQGWVMNTMQREPAPPQVEYAPVIFSQDTVSYLARIDMMSGEEDRENIFRARTTGKAVLTNPFRLLGSNHLGVVLTFAVYRPDLPADASVEQRVEATIGYLGGAFDVESLVENLLSKLAGNQDIVVNVYDVTNASDAMVLYGPSSLDEQVPFLHVSMLDFGDPFRKHEMRCRYRQKLPMPWSAITNPLGTFVIWMLLGYSIAAAYSRYDKVTEDCRKMEELKTQAEAADVAKSQFLATASHEIRTPMNGVLGMLDMLLGTDLTMTQKDYAQTAQMCGRALITLINDVLDRAKIEAGKLELEAVPFDLRSLMDDVVSLFSSKSREKCIELAVFVCDNVPKVVIGDPWRFRQILTNLVGNAVKFTERGHVFVRVCLAENSNMEANQVLHGAMNGKGGRVESTANGAFNTLSGFEAADRRNSWQYFKLLLSDKESLLDDLESENSNQSDSDRVTLAISIEDTGVGIPLQAQDRVFTPFMQADSSTSRNYGGTGIGLSISKCLAELMGGQISFTSHPSVGSTFTFSATLKHSHKDISGDSSRSLTEALPTAFKGMKAILVDGRPVRSAVTRYHLKRLGILLQVVNNMNAVVKAFPGQNGAAGSREKASILFIESDFWRPETDVQLLNHLREQKNGQLSDGHKVVLLVTSEADKDKYGSIFDIVMCKPIRASTIASSIQQLLKVEIAERKDNQNRPSFLRSLLVGKNILVVDDNKVNLRVAAAALKKYGANVSCVESGKDAISLLQPPHRFDACFMDVQMPEMDGFEATGQIRQMELKANEERKNKLASIEGSTTAEYHLPVLAMTADVIQATYEECIKSGMDGYVSKPFDEEQLYQAVSRLVVGTTDSAV
modifications: Zea mays

Legend:
AHK4 = AHK4 (Arabidopsis thaliana, UniProt Q9C5U0); settings: experimental conditions of Example 4; Plant Cell Physiol 2001, 42: 107-113; cited from earlier work
ZmHK1 = assay: Cytokinin sensor function and sensitivity of ZmHK1 in E. coli KMI001 (colony color on LAGX agar); type: cell-based, maize
From the text: The protein coding region of pZmHK1 was amplified by PCR and ligated to the BamHI/BSalI site of pIN-IIIΔEH plasmid. Primer sequences used in the PCR amplification are as described below.
Plasmid pIN-IIIΔEH has a promoter that constitutively directs weak expression of a foreign gene in E. coli. The resultant plasmid was designated pIN-III-ZmHK.
The constructed plasmid was transformed into E. coli KMI001 [ΔrcsC, cps::lacZ]. This E. coli strain is a strain in which cps gene involved in polysaccharide synthesis and a binary regulatory factor consisting of rcsC-rcsB (an expression regulatory system for cps) are partially modified. Specifically, sensor histidine kinase gene rcsC is deleted, and β-galactosidase (a marker gene) is inserted downstream of the promoter of cps gene. The resultant transformant was cultured in 2 ml of LAG liquid medium (1% Bacto tryptone, 0.5% Bacto yeast extract, 1% NaCl, 40 mM glucose, 50 mM phosphate buffer, pH 7.0) overnight at 25° C. The resultant culture broth was centrifuged and the supernatant was discarded. The E. coli cell pellet was washed twice in sterilized water and suspended in 2 ml (final volume) of sterilized water. This suspension was spotted at two points each on LAGX agar medium (1% Bacto tryptone, 0.5% Bacto yeast extract, 1% NaCl, 40 mM glucose, 50 mM phosphate buffer, pH 7.0, 80 μg/ml X-gal, 1.5% agarose) containing 1 μM trans-zeatin (t-zeatin) and on LAGX agar medium not containing t-zeatin, and cultured overnight (12 hr) at 25° C. The next day, the color of each colony was observed.
E. coli suspension was prepared in the same manner as in Example 4. Subsequently, the suspension was spotted on LAGX agar medium containing t-zeatin at varied concentrations from 0 nM to 1000 nM, and cultured overnight (12 hr) at 25° C. The next day, the color of each colony was observed.

[1] = system: cps::lacZ (β-galactosidase) expression in E. coli KMI001; assay: Examination of biosensor function: IPTG-induced sensor E. coli or its supernatant with receptor-transferred marker E. coli; type: cell-based, Escherichia coli; settings: 1 mM IPTG, Examples 6 and 7
From the text: (§1) The next day, the color of each colony was observed.
as §1

Chain of AHK4 (Q9C5U0 whole entry): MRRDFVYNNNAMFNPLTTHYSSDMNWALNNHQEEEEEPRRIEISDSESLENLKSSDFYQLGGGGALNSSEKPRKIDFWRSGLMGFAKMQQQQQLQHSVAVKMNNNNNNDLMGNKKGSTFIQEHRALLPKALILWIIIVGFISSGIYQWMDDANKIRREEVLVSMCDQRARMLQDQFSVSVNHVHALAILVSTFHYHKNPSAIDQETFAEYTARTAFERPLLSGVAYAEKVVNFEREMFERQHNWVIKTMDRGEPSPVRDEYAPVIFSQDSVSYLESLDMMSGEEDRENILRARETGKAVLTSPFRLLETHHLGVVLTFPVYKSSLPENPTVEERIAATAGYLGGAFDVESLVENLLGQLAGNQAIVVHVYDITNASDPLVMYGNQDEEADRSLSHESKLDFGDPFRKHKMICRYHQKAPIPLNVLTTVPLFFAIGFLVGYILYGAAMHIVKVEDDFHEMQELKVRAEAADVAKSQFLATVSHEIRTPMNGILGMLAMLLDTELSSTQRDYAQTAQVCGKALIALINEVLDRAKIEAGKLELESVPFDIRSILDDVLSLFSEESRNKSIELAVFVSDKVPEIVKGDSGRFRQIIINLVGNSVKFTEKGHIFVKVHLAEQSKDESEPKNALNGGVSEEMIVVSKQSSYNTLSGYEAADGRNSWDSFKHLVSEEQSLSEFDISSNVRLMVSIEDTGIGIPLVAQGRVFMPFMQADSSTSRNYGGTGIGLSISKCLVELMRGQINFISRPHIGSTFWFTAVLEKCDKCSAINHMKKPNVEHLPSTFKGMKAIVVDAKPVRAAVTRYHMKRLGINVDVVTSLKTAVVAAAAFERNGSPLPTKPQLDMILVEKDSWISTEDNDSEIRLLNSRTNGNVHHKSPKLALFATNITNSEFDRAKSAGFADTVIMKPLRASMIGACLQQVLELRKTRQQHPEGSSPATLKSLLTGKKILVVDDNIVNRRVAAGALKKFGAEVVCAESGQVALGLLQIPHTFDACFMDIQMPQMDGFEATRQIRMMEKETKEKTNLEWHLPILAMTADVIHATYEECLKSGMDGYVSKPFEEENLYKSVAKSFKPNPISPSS

| Molecule | lowest t-zeatin concentration to which AHK4-transferred E. coli is able to respond (AHK4) | β-galactosidase expression of ZmHK1-transferred E. coli in response to the cytokinin in the medium (ZmHK1; 1 μM t-zeatin in LAGX agar, 12 hr, 25° C.) | t-zeatin concentration to which ZmHK1-transferred E. coli responds (ZmHK1; LAGX agar with 0 nM to 1000 nM t-zeatin, 12 hr, 25° C.) | Biosensor response (blue colony color) of receptor-transferred transformant to IPTG [1] | ability to perceive cytokinins compared to that of AHK4 (ZmHK1) | color development of transferred E. coli spot compared with AHK4-transferred E. coli spots (ZmHK1; FIG. 1, 1 μM t-zeatin) |
| --- | --- | --- | --- | --- | --- | --- |
| C/C(=C\CNc1ncnc2nc[nH]c12)CO [t-zeatin, trans-zeatin] | approx. 50 nM | expressed β-galactosidase | ≤ 10 µM | – | – | – |
| AHK4: Arabidopsis thaliana cytokinin receptor (sensor protein) | – | – | – | did not present a blue color | – | – |
| B1 | – | – | – | discriminated the presence or absence of a specific substance | approximately 10 fold | more intensive color development |
